Key:
[1] = system: human ABC1 promoter; experiment: Luciferase reporter under control of the -200 bp human ABC1 promoter (wild type or E-box mutant), transfected RAW 264.7 cells; assay type: cell-based; settings: 24 hours, 10 μM 9CRA, 2 μg/ml 22(R)-HOch
Excerpt: Plasmids containing mutant SP1, AP1, E-box, LXR and deleted E-box fragments were constructed by site-directed mutagenesis using the overlap PCR method and the PXP1 −995 to +120 bp construct (Previato et al., JBC, 1991, 266:18958-63) as template. The primers listed below were used to amplify −200 to +44 bp of the human ABC1 promoter. Upper-case letters represent wild-type sequence whereas lower-case letters represent mutant sequence.
S224-HindIII and 44-HindIII were the upstream and downstream primers used for overlap PCR. The Hind III sites are underlined. The resulting fragments which spanned −200 to +44 of the human ABC1 gene were ligated into the HindIII site of the PXP1 luciferase reporter plasmid (Nordeen et al., Biotechniques, 1988, 6:454-457). All constructs were confirmed by sequencing.
Murine macrophage RAW 264.7 cells and human embryonic kidney 293 cells (American Type Culture Collection, Rockville, Md.) were grown in Dulbecco's modified Eagle's medium (DMEM) with 10% fetal calf serum (FCS). Approximately 1.5×10^5 cells were plated in 12-well plates (Costar, Corning, N.Y.), grown to 50-70% confluency and cotransfected with 1.5 μg of the ABC1 promoter-luciferase plasmid and 0.5 μg of the β-galactosidase vector (pCMVβ;Clontech, Palo Alto, Calif.) by using the Superfectin Reagent Kit (Qiagen, Valencia, Calif.). […]

[2] = system: USF1 and USF2; experiment: Western analysis of USF1 and USF2 in RAW cell nuclear extracts; assay type: cell-based; settings: RAW cells stimulated with cholesterol or oxysterols
Experimental: RAW cell nuclear extracts (35 μg protein per lane) from cells stimulated with cholesterol or 22-R-hydroxycholesterol were loaded onto NuPage Bis-Tris 4-12% gradient gels (Invitrogen, Carlsbad, Calif.) and run according to manufacturer's specifications. Proteins were transferred to Immobilon-P PVDF membranes (Millipore Corp, Bedford, Mass.). Antibodies (2 mg/ml stock) were from Santa Cruz Biotechnology, Inc. (Santa Cruz, Calif.) and were used according to manufacturer's specifications. Anti-USF1 C20X (catalog number sc-229X) antibody was used at a dilution of 1/600 and anti-USF2 antibodies C20X (catalog number sc862X) and N18X (catalog number sc861X) were used at a dilution of 1/1000.

[3] = system: E-box in the human ABC1 gene promoter; experiment: Gel mobility shift assay of E-box (EB) probe with RAW cell nuclear extracts; assay type: binding; settings: nuclear extracts of stimulated versus unstimulated RAW cells
Excerpt: Three double-stranded human ABC1 promoter fragments (Fragment A spanning −171 to −71 bp; Fragment EB spanning −156 to −130 bp and Fragment EB spanning −156 to −130 bp) were end-labeled with […] using T4 polynucleotide kinase (Lofstrand, Gaithersburg Md.). Nuclear extracts were isolated from unstimulated RAW 264.7 cell and HepG2 cell as well as RAW 264.7 cells after stimulation with the same concentrations of cholesterol and 22(R)-Hch shown above (Paragon Bioservices Inc. Baltimore, Md.). One ng (10,000 cpm) of radiolabelled probe was added to 2.5 μg nuclear extract in 20 ul of a 20 mM TRIS gel shift buffer (pH 7.9) containing 60 mM KCl, 0.2 mM EDTA, 0.5 mM DTT, 0.25 mM PMS, 1.3 mM MgCl, 10% glycerol, 3% Ficoll and 3 μg of double-stranded poly (dldC) as described (Previato et al., J Biol Chem, 1991, 266:18958-18963) and incubated for 10 minutes on ice followed by 10 minutes at room temperature. The incubated mixture was loaded on a 6% polyacrylamide gel in 0.25×TBE buffer and electrophoresed at 100 V for 90 min followed by autoradiography. For competition assays, nuclear extracts were preincubated for 10 minutes on ice in a 20 μl reaction mixture in the presence or absence of a 100-200-fold excess of double-stranded DNA competitors for Sp1 (−173 to −155 bp), AP1 (−135 to −155 bp), LXR (−54 to −69 bp) and E-box (−158 to −136 bp) before addition of probe. […]

[4] = system: regulatory nucleic acid for the human ABC1 gene; experiment: Luciferase reporter under control of the -995 to +120 regulatory nucleic acid for the human ABC1 gene, transfected Hepa1-6 cells; assay type: cell-based
Excerpt: The region of the regulatory acid for the human ABC1 gene which ranges from the nucleotide at position −-995 up to the nucleotide at position +120, with respect to the transcription start site, was amplified by the PCR technique, with the aid of the following pair of primers: • forward primer S995 (SEQ ID No. 12), of sequence 5′-TTGCCGTCGACTGTTTTGGGTAGTTT-3′; and • reverse primer +220R (SEQ ID No. 13), of sequence 5′-GCCCTGTCGACCGGCTCTGTTGGT-3′, • From human genomic DNA present in a BAC vector from a collection of human BAC vectors.
The DNA fragment amplified was digested with the restriction endonuclease Sal 1, and then inserted into the vector PXP1 described by Nordeen et al. (1988, BioTechniques, 6: 454-457), at the Sal 1 restriction site of this vector.
Cells of the Hepa1-6 line (ATCC, Rockville, Md., USA) were cultured in the medium E-MEM (Minimum Essential Medium with Earle's Salts), to which 10% (v/v) of fetal calf serum (BioWhittaker, Walkersville, Md.) was added.
Approximately 1.5×10^5 cells were distributed into each of the wells of a 12-well (2.5 cm) culture plate, and were cultured until approximately 50 to 70% confluence, and were then cotransformed with 1 μg of the plasmid Sal-Lucif and 0.5 μg of the control vector pBetagel (CloneTech Laboratories Inc., Palo Alto, Calif., USA) using the Superfectin Reagent Kit pack (QIAGEN Inc., Valencia, Calif., USA). Two hours after adding the DNA, the culture medium was removed, and replaced with complete AMEM (Minimum Essential Medium Eagle's Alpha Modification) medium. […]
Freshly thawed aliquot fractions were used to quantify the proteins, using the MicroBCA Kit pack (Pierce, Rockford, Ill., USA), as well as to quantify the luciferase and beta-galactosidase production, using, respectively, the Tropix Luciferase Assay Kit and Galacto-Light Plus Kit packs. […]

Row | SMILES | Effect on ABC1 gene transcription (luciferase reporter) [1] | Expression of USF immunoreactive bands (43 and 44 KDa) [2] | Gel shift banding patterns with EB probe [3] | Luciferase activity ([4]; Hepa1-6 cells, in the presence of 50 μg/ml cholesterol, cells recovered 16 hours after medium change) | Increase in the activity ([4]; in the presence versus absence of cholesterol) | Normalized activity ([4]; luciferase normalized to β-galactosidase, in the presence of 50 μg/ml cholesterol)
1 | CC(C)CC[C@@H](O)[C@@H](C)[C@H]1CC[C@H]2[C@@H]3CC=C4C[C@@H](O)CC[C@]4(C)[C@H]3CC[C@]12C [oxysterols, 22-(R)-hydroxycholesterol] | stimulatory effect | not altered | No differences |  |  | 
2 | CC1=C(/C=C/C(C)=C\C=C\C(C)=C\C(=O)O)C(C)(C)CCC1 [CRA, 9-cis-retinoic acid] | stimulatory effect |  |  |  |  | 
3 | CC(C)CCC[C@@H](C)[C@H]1CC[C@H]2[C@@H]3CC=C4C[C@@H](O)CC[C@]4(C)[C@H]3CC[C@]12C [cholesterol] |  | not altered | No differences | 500000 RLU | 1.82 | 13.25

From patent US7378274B2, “Regulatory nucleic acid for the ABC1 gene, molecules modifying its activity and therapeutic uses” (Aventis Pharma S.A., priority 2000, dated 2008)
